# Results as given in patent publication US8586307B2, “Methods for diagnosing epigenetic, transgenerational effects of environmental toxicants on mammalian germ-lines and treating associated diseases” (priority 2005, dated 2013).
# Key:
# E16 testis = experiment: Microarray gene expression analysis of embryonic testis; type: in vivo, rat; conditions: F1 and F2 generation E16 testis vs control
# Excerpt: Microarray analysis: RNA was collected from embryonic day […] 16 (E16) testis from control and E16 vinclozolin F1 and F2 generation animals as described above for Example I. RNA was hybridized to the Affymetrix (Affymetrix, Santa Clara, Calif.) rat 230A gene chip. The Genomics Core in the Center for Reproductive Biology at Washington State University, Pullman, Wash., performed the analysis as previously described, and incorporated by reference herein [149, 150]. Briefly, RNA from the cells was reverse transcribed into cDNA then was transcribed into biotin labeled RNA. Biotin labeled RNA was then hybridized to the Affymetrix rat 230A gene chips. Each gene set is composed of 16 pairs of […] oligonucleotides, with one sense strand specific for the gene and one anti-sense strand with single point mutations for use as a comparative negative control. Biotinalated RNA was then visualized by labeling with phycoerythrin-coupled avidin. The microarray was scanned on a Hewlett-Packard Gene Array Scanner (Hewlett-Packard Co., Palo Alto, Calif.).
# Bioinformatics: The majority of the data analysis was performed using the Affymetrix Microarray Suite Software (Affymetrix, Santa Clara, Calif.). […] Basic expression analysis was determined by accessing the Affymetrix database through the Microarray Suite Software. […]
# pregnant females = experiment: Ovary and pregnancy outcomes in vinclozolin generation females; type: in vivo, rat; conditions: preliminary data
# Excerpt: The abnormal phenotype has similarities to pre-eclampsia that include death, severe anemia and blood cell defects, occurring in approximately 15% of all pregnancies in vinclozolin-generation females. Other disease states, as such as prostate abnormalities, tumor development, abnormal immune system activation and premature aging, may be induced by the epigenetic transgenerational actions of the endocrine disruptors.
# F1 generation testis = conditions: cited from earlier work
smiles,measurement,setting,value
C=CC1(C)OC(=O)N(c2cc(Cl)cc(Cl)c2)C1=O (stereo not drawn) [vinclozolin],"expression of Fadd, Pbm1b, Rps12 and Waspip",E16 testis,increased expression
same,"expression of ankyrin 28, Ncstn, Rab12 and Lrrn6a",E16 testis,reduced expression
same,"pregnancies with abnormal phenotype similar to pre-eclampsia (death, severe anemia, blood cell defects)","pregnant females; F1, F2 and F3 generation pregnant females",approximately 15%
same,effect on the female ovary,pregnant females,no major effect
same,adult F1 generation testis phenotype,"F1 generation testis; gestating mother exposed E8-E15, 100 or 200 mg/kg i.p. daily","reduced spermatogenic capacity, increased spermatogenic cell apoptosis and decreased sperm number and motility"
same,effect on the F1 generation testis,"F1 generation testis; rat, in vivo",no effect
